In publication PMC12169614, “Exploring Long Arm Amide-Linked Side Chains in the Design of Antifungal Azole Inhibitors of Sterol 14α-Demethylase (CYP51)” (Journal of Medicinal Chemistry, 2025):

Key:
Format in all cases: cell-based, S. cerevisiae
Details in all cases: 10 nmol/disk, 30 °C, 48 h
[1] = test system: Y2301 ScCYP51 Y140F mutant; test: Agarose (disk) diffusion assay, strain Y2301
Source text: (§1) Final compounds were screened as racemic mixtures using agarose diffusion assays to visualize their inhibitory activity against a panel of recombinant S. cerevisiae strains i.e., S. cerevisiae strains expressing control levels of wild-type CYP51 (ScCYP51), overexpressed wild-type ScCYP51, overexpressed azole-resistant ScCYP51 Y140F/H mutations and overexpressed C. albicans efflux pumps MDR1a or CDR1B (Figure and Table S1).
(§2) The susceptibilities of S. cerevisiae and Candida species strains to azole compounds were observed as zones of growth inhibition in agarose diffusion assays. The disk diffusion assays were carried out as described by Keniya et al. Complete supplement mixture (CSM) agarose (0.6% agarose [wt/vol]; 20 mL of synthetic defined medium (SD); pH 6.8–7) was solidified in a rectangular Petri dish which was overlaid with CSM agarose (0.6% [wt/vol]; 5 mL; pH 6.8–7) seeded with yeast cells at an optical density (OD600) of 0.008 (118,000 cells per 1 mL of overlay). Azole compounds (10 nmol/disk) were applied to sterile BBL paper disks (Becton Dickinson Co., Sparks, MD) and placed on solidified overlays. Cell growth was assessed after incubation at 30 °C for 48 h.

[2] = test system: Y2513 ScCYP51 Y140H mutant; test: Agarose (disk) diffusion assay, strain Y2513
Source text: as §1, §2

[3] = test system: Y525 MFS efflux pump CaMDR1a overexpressed; test: Agarose (disk) diffusion assay, strain Y525
Source text: as §1, §2

O=C(NCC(O)(Cn1cncn1)c1ccc(F)cc1F)c1cnc2ccccc2c1 (centres unmarked) [Compound 15, N-(2-(2,4-Difluorophenyl)-2-hydroxy-3-(1H-1,2,4-triazol-1-yl)propyl)quinoline-3-carboxamide]
zone of growth inhibition (inhibitory activity in words) [1]: showed activity
zone of growth inhibition (inhibitory activity in words) [2]: showed activity

O=C(NCc1ccc(-c2ccccc2)cc1)C(Cn1cncn1)c1ccc(F)cc1F (centres unmarked) [Compound 37]
zone of growth inhibition (inhibitory activity in words) [1]: low inhibitory activity
zone of growth inhibition (inhibitory activity in words) [3]: low inhibitory activity
zone of growth inhibition (inhibitory activity in words) [2]: low inhibitory activity

O=C(NCc1ccc(-c2ccc(Cl)cc2)cc1)C(Cn1cncn1)c1ccc(F)cc1F (centres unmarked) [Compound 38]
zone of growth inhibition (inhibitory activity in words) [1]: low inhibitory activity
zone of growth inhibition (inhibitory activity in words) [3]: low inhibitory activity
zone of growth inhibition (inhibitory activity in words) [2]: low inhibitory activity

O=C(NCc1ccc(-c2ccc(C(F)(F)F)cc2)cc1)C(Cn1cncn1)c1ccc(F)cc1F (centres unmarked) [Compound 39]
zone of growth inhibition (inhibitory activity in words) [1]: lacked inhibitory activity
zone of growth inhibition (inhibitory activity in words) [3]: lacked inhibitory activity
zone of growth inhibition (inhibitory activity in words) [2]: lacked inhibitory activity

O=C(NCc1ccc(-c2ccc(OC(F)(F)F)cc2)cc1)C(Cn1cncn1)c1ccc(F)cc1F (centres unmarked) [Compound 40]
zone of growth inhibition (inhibitory activity in words) [1]: low inhibitory activity
zone of growth inhibition (inhibitory activity in words) [3]: low inhibitory activity
zone of growth inhibition (inhibitory activity in words) [2]: low inhibitory activity
